≈ marks a conversion by molar mass, not a printed value. Read-outs that look alike come from different tables or passages of the source. Positions of bridges follow the written chain, without caps; N, C: chain ends. Residues, ends and D or L forms follow the SMILES beside them.
Tests used:
[1] = test system: Methicillin-resistant Staphylococcus aureus MRSA (ATCC BAA-1556); conditions: ATCC BAA-1556
[2] = test system: Pseudomonas aeruginosa (ATCC 27883); conditions: ATCC 27883
[3] = test system: Klebsiella pneumoniae (ATCC BAA-1705); conditions: ATCC BAA-1705
[4] = test system: Escherichia coli (ATCC 25922); conditions: ATCC 25922
[5] = test system: Methicillin-resistant Staphylococcus aureus MRSA (ATCC BAA-1556); type: cell-based
Description: (§1) All bacteria pathogens tested clinically reported multi-drug resistant strains. The antibacterial activity was tested against Gram-negative strains namely; Pseudomonas aeruginosa (PSA), Klebsiella pneumoniae (KPC), Escherichia coli (E. coli) and Gram-positive Methicillin-resistant Staphylococcus aureus (MRSA). The minimum inhibitory concentration (MIC) is the lowest concentration of the antibiotic that inhibits microbial growths. MIC is determined by visual inspection or use of spectrophotometer plate reader to determine media turbidity. On the other hand, the minimum bactericidal concentration (MBC) is the lowest concentration that kills […] of bacterial growth. Cytotoxicity of peptides in the hepatic cell line, human skin fibroblast cell line, heart/myocardium cells, and human lung fibroblast cells is shown in FIGS. 36-46). […] (IFX-315)-Au-NP with antibiotics are shown in FIGS. 49-58 when the gold nanoparticles are formed by the peptide followed by addition of the antibiotic. […] (IFX-301) with antibiotics (1:1 ratio) first and then used in the synthesis of Au-NP in antibacterial activities is shown in FIGS. 59-68.
(§2) The MBC is identified by determining the lowest concentration of antibacterial agent that reduces the viability (concentration of peptides necessary to achieve a bactericidal effect) of the initial bacterial inoculum by ≥99.9%.

[6] = test system: Pseudomonas aeruginosa (ATCC 27883); type: cell-based; conditions: ATCC 27883
Description: as §1, §2

[7] = test system: Escherichia coli (ATCC 25922); type: cell-based
Description: as §1, §2

[8] = test system: Enterococcus faecium ATCC 27270; conditions: ATCC 27270
[9] = test system: Pseudomonas aeruginosa (PSA, ATCC 27883); assay: microbe, parasite or virus in culture; conditions: ATCC27883, 24 h
[10] = test system: Klebsiella pneumoniae (KPC, ATCC BAA-1705); assay: microbe, parasite or virus in culture; conditions: ATCCBAA1705, 24 h
MRSA (ATCC BAA-1556) = conditions: MRSA (ATCC BAA-1556), antibiotic alone
[11] = test system: Klebsiella pneumoniae (KPC, ATCC BAA-1705); conditions: Table 26; Klebsiella pneumoniae (ATCC BAA-1705); antibiotic alone
[12] = test system: Escherichia coli (E. Coli, ATCC 25922); assay: microbe, parasite or virus in culture; conditions: ATCC25922, 24 h
[13] = test system: Pseudomonas aeruginosa (PSA, ATCC 27883); assay: Synergy checkerboard assay (FIC index); type: cell-based; conditions: Pseudomonas aeruginosa (ATCC 27883), antibiotic alone
[14] = test system: Escherichia coli (E. Coli, ATCC 25922); conditions: Table 25; Escherichia coli (ATCC 25922); antibiotic alone
[15] = test system: Methicillin-resistant Staphylococcus aureus MRSA (ATCC BAA-1556); assay: microbe, parasite or virus in culture; conditions: ATCCBAA1556|MRSA, 24 h

MRSA (ATCC BAA-1556) MIC [1] [µg/mL]	PSA (ATCC 27883 MIC) [2] [µg/mL]	KPC (ATCC BAA-1705) MIC [3] [µg/mL]	E. coli (ATCC 25922) MIC [4] [µg/mL]	SMILES	MRSA (ATCC BAA-1556) MBC [5] [µg/mL]	E. coli (ATCC 25922) MBC [7] [µg/mL]	MIC Escherichia coli (ATCC 25922) (E. coli) [µg/mL]	MIC Klebsiella pneumoniae (ATCC BAA-1705) (KPC) [µg/mL]	MIC (MRSA) [µg/mL]	MIC MRSA ATCC BAA-1556 (MRSA) [µg/mL]	MIC Pseudomonas aeruginosa (ATCC 27883) (PSA) [µg/mL]	also measured
32	256	256	32	N=C(N)NCCC[C@@H]1NC(=O)[C@H](CCCNC(=N)N)NC(=O)[C@H](CCCNC(=N)N)NC(=O)[C@H](CCCNC(=N)N)NC(=O)[C@@H](NC(=O)[C@H](Cc2c[nH]c3ccccc23)NC(=O)[C@H](Cc2c[nH]c3ccccc23)NC(=O)[C@H](Cc2c[nH]c3ccccc23)NC(=O)[C@@H](N)Cc2c[nH]c3ccccc23)CSSC[C@@H](C(=O)O)NC1=O [IFX-334] (H-WWWWCRRRRC-OH; disulfide 5-10)	64	64	–	–	–	–	–	PSA (ATCC 27883) MBC [6]: 256 µg/mL
64	256	512	128	N=C(N)NCCC[C@H](NC(=O)[C@H](CCCNC(=N)N)NC(=O)[C@H](CCCNC(=N)N)NC(=O)[C@H](CCCNC(=N)N)NC(=O)[C@H](CS)NC(=O)[C@H](Cc1c[nH]c2ccccc12)NC(=O)[C@H](Cc1c[nH]c2ccccc12)NC(=O)[C@H](Cc1c[nH]c2ccccc12)NC(=O)[C@@H](N)Cc1c[nH]c2ccccc12)C(=O)N[C@@H](CS)C(=O)O [IFX-332] (H-WWWWCRRRRC-OH)	128	256	–	–	–	–	–	–
–	–	–	–	N=C(N)NCCC[C@@H]1NC(=O)[C@H](CCCNC(=N)N)NC(=O)[C@H](CCCNC(=N)N)NC(=O)[C@H](Cc2c[nH]c3ccccc23)NC(=O)[C@H](Cc2c[nH]c3ccccc23)NC(=O)[C@H](Cc2c[nH]c3ccccc23)NC(=O)[C@H](Cc2c[nH]c3ccccc23)NC(=O)[C@H](CCCNC(=N)N)NC(=O)[C@H](CCCNC(=N)N)NC1=O [[R5W4] (IFX-301)]	–	–	16 (≈ 10.5 µM)	32 (≈ 21 µM)	4 (≈ 2.62 µM)	4 (≈ 2.62 µM)	32 (≈ 21 µM)	MIC [8]: 8 µg/mL (≈ 5.24 µM)
–	–	–	–	NC[C@H]1O[C@H](O[C@H]2[C@H](O)[C@@H](O[C@H]3O[C@H](CO)[C@@H](O)[C@H](N)[C@H]3O)[C@H](N)C[C@@H]2N)[C@H](N)C[C@@H]1O [Tobramycin]	–	–	–	–	–	–	–	MIC ([9]; read-out: Pseudomonas aeruginosa (ATCC 27883) MIC, Table 29, [R6W4] (IFX-318), antibiotics alone and PHY-MIX (1:1 w/w)): 0.5 µg/mL (≈ 1.07 µM); MIC ([9]; read-out: Pseudomonas aeruginosa (ATCC 27883) MIC, Table 30, [R5W4K] (IFX-315), antibiotics alone and PHY-MIX (1:1 w/w)): 0.5 µg/mL (≈ 1.07 µM); MIC ([9]; read-out: Pseudomonas aeruginosa (ATCC 27883) MIC, Table 31, [R5W4] (IFX-301), antibiotics alone and PHY-MIX (1:1 w/w)): 0.5 µg/mL (≈ 1.07 µM); MIC ([10]; read-out: Klebsiella pneumoniae (ATCC BAA-1705) MIC, Table 29, [R6W4] (IFX-318), antibiotics alone and PHY-MIX (1:1 w/w)): 16 µg/mL (≈ 34.2 µM); MIC ([10]; read-out: Klebsiella pneumoniae (ATCC BAA-1705) MIC, Table 30, [R5W4K] (IFX-315), antibiotics alone and PHY-MIX (1:1 w/w)): 16 µg/mL (≈ 34.2 µM); MIC ([10]; read-out: Klebsiella pneumoniae (ATCC BAA-1705) MIC, Table 31, [R5W4] (IFX-301), antibiotics alone and PHY-MIX (1:1 w/w)): 16 µg/mL (≈ 34.2 µM); MIC of antibiotic (MRSA (ATCC BAA-1556)): 0.5 µg/mL; MIC of antibiotic (MRSA (ATCC BAA-1556); Table 25): 0.5 µg/mL; MIC of antibiotics [11]: 16 µg/mL; MIC ([12]; read-out: Escherichia coli (ATCC 25922) MIC, Table 30, [R5W4K] (IFX-315), antibiotics alone and PHY-MIX (1:1 w/w)): 8 µg/mL (≈ 17.1 µM); MIC ([12]; read-out: Escherichia coli (ATCC 25922) MIC, Table 31, [R5W4] (IFX-301), antibiotics alone and PHY-MIX (1:1 w/w)): 8 µg/mL (≈ 17.1 µM); MIC of antibiotic ([13]; Table 26): 0.5 µg/mL; antibiotic MIC ([13]; Table 27): 0.5 µg/mL; MIC of antibiotic [14]: 8 µg/mL; MIC ([15]; read-out: MRSA (ATCC BAA-1556) MIC, Table 30, [R5W4K] (IFX-315), antibiotics alone and PHY-MIX (1:1 w/w)): 0.5 µg/mL (≈ 1.07 µM); MIC ([15]; read-out: MRSA (ATCC BAA-1556) MIC, Table 31, [R5W4] (IFX-301), antibiotics alone and PHY-MIX (1:1 w/w)): 0.5 µg/mL (≈ 1.07 µM)
–	–	–	–	N=C(N)NCCC[C@@H]1NC(=O)[C@H](CCCNC(=N)N)NC(=O)[C@H](CCCNC(=N)N)NC(=O)[C@H](CCCNC(=N)N)NC(=O)[C@H](Cc2c[nH]c3ccccc23)NC(=O)[C@H](Cc2c[nH]c3ccccc23)NC(=O)[C@H](Cc2c[nH]c3ccccc23)NC(=O)[C@H](Cc2c[nH]c3ccccc23)NC(=O)[C@H](CCCNC(=N)N)NC(=O)[C@H](CCCNC(=N)N)NC1=O [[R6W4] (IFX-318)] (cyclo(RRRRRRWWWW))	–	–	32 (≈ 19 µM)	64 (≈ 38.1 µM)	8 (≈ 4.76 µM)	4 (≈ 2.38 µM)	16 (≈ 9.51 µM)	–
